According to patent US20050256103A1, “Indole derivative having piperidine ring” (Eisai Co., Ltd., priority 2004, published 2005):
Like-named read-outs stand apart in the source and are kept apart here.

Columns and labels:
5-HT1A receptor = target: T1, 5-HT1A receptor (Sus scrofa, UniProt A0A4X1UTF5); assay: Affinity for serotonin 1A receptor: inhibition of [3H]MPPF binding in swine hippocampal membrane fraction; conditions: for IC50: [3H]MPPF 0.5 nM, swine hippocampal membrane, 37°C 30 min
T1 construct: Swine hippocampus was homogenized in a 50 mM Tris-Hcl buffer; from tissue; host or cells: swine hippocampus, membrane fraction
T1 sequence (A0A4X1UTF5 1-422): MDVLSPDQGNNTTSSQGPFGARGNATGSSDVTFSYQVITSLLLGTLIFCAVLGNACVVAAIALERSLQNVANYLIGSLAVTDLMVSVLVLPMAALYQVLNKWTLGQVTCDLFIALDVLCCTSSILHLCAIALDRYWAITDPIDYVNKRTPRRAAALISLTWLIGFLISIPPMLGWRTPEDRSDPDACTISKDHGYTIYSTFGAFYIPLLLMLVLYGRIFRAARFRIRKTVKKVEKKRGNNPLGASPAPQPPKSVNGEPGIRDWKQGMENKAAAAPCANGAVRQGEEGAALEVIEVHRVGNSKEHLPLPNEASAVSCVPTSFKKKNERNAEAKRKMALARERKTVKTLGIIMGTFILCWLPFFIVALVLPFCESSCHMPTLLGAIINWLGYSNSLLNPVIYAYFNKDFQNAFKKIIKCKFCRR
Summary of the method: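 Swine hippocampal membranes incubated 30 min at 37 °C with 0.5 nM [3H]MPPF and test compound in 50 mM Tris-HCl pH 7.4, 1% DMSO, with 10 mM MgCl2 (G-protein-coupled, high-affinity state) or 1 mM Gpp(NH)p (uncoupled, low-affinity state). Bound radioactivity measured by filtration and scintillation counting; nonspecific binding defined with 10 μM WAY-100,635. IC50 in each state; low/high IC50 ratio taken as an estimate of intrinsic activity.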

Sprague-Dawley male rats = assay: Effect of controlling memory disorder induced by 8-OH-DPAT in rats (8-arm radial maze); assay type: in vivo, rat; conditions: 0.3 mg/kg, s.c., 20 min before 8-OH-DPAT 0.5 mg/kg s.c.; Mean ± S.E., N 8
Description: (1) A Sprague-Dawley male rats (130-200 g) were bred in an individual cage and used in the present test. For appetite stimulation, the body weight of the rats was reduced to approximately 80% of the original weight by fasting. […] As a maze test, an elevated 8-arm radial maze (central platform diagonal length: 34 cm, arm length: 60 cm; arm width: 12 cm) was used. In order to allow the rats to remember the positions of baits placed on the arms, the rats were left on the platform of the maze in which baits had been placed on the tips of the 4 predetermined arms. Thereafter, the rats were left on the maze for a certain period of time or until it ate all the baits. This training was carried out 1 to 3 times a day. The rats that had sufficiently learned were subjected to the following experiment. A solvent or test substance was subcutaneously administered to the rats. Twenty minutes later, 0.5 mg/kg 8-OH-DPAT was subcutaneously administered thereto. Further, 20 minutes later, the same maze test as that in the training was carried out. A reference memory error was defined as an action to enter arms on which no baits had been placed, and a working memory error was defined as an action to enter again arms on which baits had previously been placed. Thus, the actions of the rat were recorded. In addition, the time required for the rat to take all the four baits was also recorded. […] (Reference:Yoshihiro Hiraga, “Effects of scopolamine upon delayed radial-arm maze performance in rats” Folia pharmacol. Japon. 97, 351-359 (1991)) The results are shown in Table 4.

male C57BL mice = assay: Antianxiety effect by mouse light/dark box test; assay type: in vivo; conditions: sc, 30 minutes before test, 5 min observation, N 7
Method: (1) The method of Belzung C., Misslin R., and Vogel E. (Reference: Behavioural effects of the benzodiazepine receptor partial agonist RO16-6028 in mice, Psychopharmacology, 97, 388-391, 1989) was modified. The present mouse light/dark box test was carried out according to such a modified method. As a test device used in this test, a lidded black acryl box (dark box, 15×10×20 cm) was connected to a lidless white acryl box (light box, 15×20×20 cm) using a black-acryl tunnel (10×7×4.5 cm), so as to prepare a light/dark box in which a mouse can freely move between the dark box and the light box. In this test device, in order to observe the behavior of the mouse, the anterior surface (20×20 cm) and back surface (20×20 cm) of the light box were made from transparent acryl. The illumination was set to provide in an illuminance of 150 Lux on the floor of the light box. Thereafter, each of male C57BL mice (20-35 g) was placed in the dark box, and the test was started. In this test, a test substance was subcutaneously administered to the test animal 30 minutes before the initiation of the test.
A state where the 4 legs of the mouse were contacted with on the floor of the light box was defined as stay at a light place, and the time when the mouse stayed at a light place was measured. The obtained time was used as an index of antianxiety action.

## CNC(=O)c1ccc2ccn(C3CCN(CCc4c(OC)ccc5c4OC(C)(C)CC5=O)CC3)c2c1 [Compound 20, 1-{1-[2-(7-methoxy-2,2-dimethyl-4-oxochroman-8-yl)ethyl]piperidin-4-yl}-N-methyl-1H-indole-6-carboxamide]
5-HT1A receptor; receptor in high affinity (G-protein binding, MgCl2 10 mM) state, read-out: High affinity IC50
  IC50: 0.2 nM
5-HT1A receptor; receptor in low affinity (G-protein non-binding, Gpp(NH)p 1 mM) state, read-out: Low affinity IC50
  IC50: 0.16 nM
5-HT1A receptor; low affinity IC50 divided by high affinity IC50, 1 or smaller = no intrinsic activity, 2 or greater = intrinsic activity
  L/H ratio: 0.8
Sprague-Dawley male rats
  Elapsed time: 52 ± 9.9 s
  Number of reference memory errors: 1.50 ± 0.57
  Number of working memory errors: 0.25 ± 0.16
Male C57BL mice; 0.03 mg/kg
  Time of stay at light place: 46 ± 9.4 s
Male C57BL mice; 0.1 mg/kg
  Time of stay at light place: 67 ± 19 s
